In US10149472B2, “Chitin oligomers for use in promoting non-leguminous plant growth and development” (Wisconsin Alumni Research Foundation, priority 2015, dated 2018):

Tests used:
[1] = system: rice knock-out mutants of pollux and dmi3; test: Root architecture modification in rice Ospollux and Osdmi3 mutants; format: in vivo, Oryza sativa cv Nipponbare; settings: 10^−8M; Ospollux and Osdmi3 mutants vs wild-type; FIG. 4
Protocol: (§1) Oryza sativa cv Nipponbare wild-type and Tos17 insertion lines in POLLUX (line NC6453) and DMI3 were used for root architecture experiments (12, 13). Seeds were prepared by sterilizing with 2% bleach for 20 minutes, followed by 3, 5-minute rinses with sterile water. The sterile seeds were then imbibed overnight. Seeds were then plated on damp germination paper in Petri plates under sterile conditions and germinated in the dark at 25 degrees for 7 days. Germinated rice plants were then plated on Fahraeus medium on germination paper and grown at 22 degrees under constant light. After 5 days the plants were treated with 10^−8M LCOs and COs for 24 hours by submersion and re-plated onto Fåhræus Medium 1.5% agar plates (0.132 g/L CaCl2, 0.12 g/L MgSO4.7H2O, 0.1 g/L KH2PO4, 0.075 g/L Na2HPO4.2H2O, 5 mg/L Fe-citrate, and 0.07 mg/L each of MnCl2.4H2O, CuSO4.5H2O, ZnCl2, H3BO3, and Na2MoO4.2H2O, adjusted to pH 6.5 before autoclaving). As all signals were suspended in 50% ethanol, the appropriate concentration of ethanol in sterile DI water served as a control. Root system architecture was assessed after 2 weeks.
Total lateral roots of rice were enumerated manually two weeks after application of 10^−8M COs and LCOs. As COs and LCOs were suspended in 50% ethanol, the control is sterile deionized water containing the appropriate amount of ethanol. […] Root system length was measured starting from the root-shoot junction to the tip of the longest root. The number of crown roots was assessed manually as those roots emerging from the root-shoot junction. […] Data were assessed for normality using the Shapiro-Wilk test (α=0.01), and statistical significance was determined using a paired t-test assuming unequal variances, or a Mann-Whitney-Wilcoxon Test if normality was not observed (α=0.05). […]
To assess the role of the common symbiotic pathway in regulating root architecture modifications in response to purified LCOs and COs, we quantified root responses to mycorrhizal signals in rice knock-out mutants of pollux (upstream of calcium spiking) and dmi3 (downstream of calcium spiking).

[2] = system: Hard Red Spring Wheat (HRSW); test: Seed treatment of hard red spring wheat in vitro (plates); format: in vivo; settings: seed coating 125 μl of 10^−6 M; for Number of Lateral Roots / Number of Primary Roots: 4-5 days after transfer
Protocol: Hard red spring wheat seeds were surface sterilized using ethanol and bleach. The sterilized seeds were then divided among 4 treatment groups of 5 grams each into 50 ml falcon tubes. To the control tube, 0.5% ethanol in water was added. To the CO4 tube, 125 μl of 10^−6 M CO4 solution was added. To the CO8 tube, 125 μl of 10^−6 M CO8 solution was added. To the “Consensus” tube, 125 μl of 10^−6 M solution of chitosan (CONSENSUS® chitosan; Loveland Products, Inc., Loveland, Colo.) was added. Each tube was then shaken to coat the seeds. The coated seeds were then placed on sterile Petri dishes in a hood and were left to dry overnight in the hood.
The seeds were then germinated on damp germination paper in sterile Petri dishes for 4 days. The resulting seedlings were transferred to Fahräeus medium plates containing damp germination paper, and the plates were wrapped in Parafilm®. Fahräeus medium contains 0.5 m M MgSO4, 0.7 mM KH2PO4, 0.4 mM Na2HPO4, 0.02 mM Fe-EDTA, 0.01 mM MnSO4, 0.007 mM CuSO4, 0.006 mM ZnSO4, 0.016 mM H3BO3, 0.001 mM Na2MoO4, and 15 g/L Agar for plant tissue, adjusted to pH 6.5 before autoclaving. The plants were grown at room temperature under continuous light for 4-5 days. The number of primary roots (PR), lateral roots (LR), root system length (RSL) and dry weight (DW) was then measured for all plants.

[3] = system: rice; test: Root architecture modification in wild-type rice after submersion treatment; format: in vivo, Oryza sativa cv Nipponbare; settings: 10^−8M, 24 hours submersion, assessed after two weeks, FIG. 3
Protocol: as §1
Total lateral roots of rice were enumerated manually two weeks after application of 10^−8M COs and LCOs. As COs and LCOs were suspended in 50% ethanol, the control is sterile deionized water containing the appropriate amount of ethanol. Lateral roots were defined as large and fine lateral roots emerging from crown roots, as well as fine lateral roots emerging from large lateral roots. Root system length was measured starting from the root-shoot junction to the tip of the longest root. The number of crown roots was assessed manually as those roots emerging from the root-shoot junction. Root type characterizations were based upon the descriptions in Gutjahr et al. (19). Data were assessed for normality using the Shapiro-Wilk test (α=0.01), and statistical significance was determined using a paired t-test assuming unequal variances, or a Mann-Whitney-Wilcoxon Test if normality was not observed (α=0.05). All statistical analysis was conducted using the R software package (20).

[4] = system: rice atrichoblasts on lateral roots; test: Calcium spiking (YC3.6 imaging) in rice atrichoblasts on lateral roots; format: cell-based, Oryza sativa cv Nipponbare; settings: for calcium oscillations: FIG. 1; for calcium oscillations, CO4 compared with CO8: 10^−8M and 10^−5 M, FIG. 2
Protocol: Mycorrhizal induced calcium responses were measured as described previously (14). Transgenic Oryza sativa Nipponbare lines carrying Yellow Cameleon 3.6 (YC3.6) FRET-based calcium sensor was used to detect calcium spiking. YC3.6 was imaged on a Nikon Eclipse Ti inverted microscope (Nikon, Japan) equipped with an OptoLED Illuminator (model OptoLED, Cairn Research Ltd, UK). YC3.6 was excited at a wavelength of 455 nm using a royal blue LED and was captured with a charge-coupled device (CCD) camera (model RETIGA-SRV, Qimaging, Canada). Emitted fluorescence was separated by an image splitter with a dichroic mirror (model Optosplit II, Cairn Research Ltd, UK) and then passed through a fluorescence filter set. Images were collected every 5 seconds with 1-second exposure and analyzed using MetaFluor (Molecular Devices, Sunnyvale, Calif., USA).
For Bayesian Spectrum Analysis we computed the most probable periods in the time series following published procedures (15). Ten traces per treatment were analyzed. The joint distributions over the period were used to characterize each group. The plots show binned data to summarize the key periods. These ten traces per treatment were also analyzed for interspike intervals. The point of maximum height for each spike was computed after detrending of the time series using a moving average algorithm. The distances between these maxima gave rise to an interspike distribution. We used the non-parametric Mann-Whitney U-test, also known as the Mann-Whitney-Wilcoxon test (16, 17) to test for significant differences between the distributions.
Three traces per treatment, with approximately 80 spikes altogether, were analyzed for calcium spike characteristics. […] The traces were detrended using a moving average algorithm (18). We then characterized the spikes by the time required for each upward and downward phase. This was computed by the number of data points it took from the maximum spike height to the baseline fluctuation of the trace. The plots show the mean value of the upward and downward phases for each treatment, and the associated standard deviations are indicated by the error bars.
Calcium responses were assessed using a stably transformed line of Oryza sativa cv Nipponbare carrying YC3.6. […] To test an array of different LCO structures, we analyzed calcium spiking in response to Nod factor isolations from the broad host range rhizobial species, Rhizobium sp. NGR234, as well as Rhizobium tropici, in addition to the Myc-LCOs.

Row | SMILES | dependence of lateral root growth promotion on POLLUX / DMI3 [1] | Dry Weight [2] | Number of Lateral Roots [2] | Number of Primary Roots [2] | crown root growth [3] | lateral root growth [3] | calcium oscillations ([4]; 10^−5M, rice large lateral roots, epidermal cells (atrichoblasts)) | calcium oscillations, CO4 compared with CO8 [4] | calcium oscillations ([4]; 10^−8M, rice epidermal cells, robustness and number of responsive cells reduced) | Root System Length (cm) ([2]; * significant at P < 0.05)
1 | CC(=O)N[C@H]1[C@H](O[C@H]2[C@H](O)[C@@H](NC(C)=O)C(O)O[C@@H]2CO)O[C@H](CO)[C@@H](O[C@@H]2O[C@H](CO)[C@@H](O[C@@H]3O[C@H](CO)[C@@H](O)[C@H](O)[C@H]3NC(C)=O)[C@H](O)[C@H]2NC(C)=O)[C@@H]1O (some centres unmarked) [CO4, tetra-N-acetylchitotetraose] | dependent on both POLLUX and DMI3 | 0.0206 g | 3.73 | 5.20 | promoted | promoted | strong calcium oscillations | respond equally well | still showed calcium oscillations | –
2 | CC(=O)N[C@H]1[C@H](O[C@H]2[C@H](O)[C@@H](NC(C)=O)[C@H](O[C@H]3[C@H](O)[C@@H](NC(C)=O)[C@H](O[C@H]4[C@H](O)[C@@H](NC(C)=O)C(O)O[C@@H]4CO)O[C@@H]3CO)O[C@@H]2CO)O[C@H](CO)[C@@H](O[C@@H]2O[C@H](CO)[C@@H](O[C@@H]3O[C@H](CO)[C@@H](O[C@@H]4O[C@H](CO)[C@@H](O[C@@H]5O[C@H](CO)[C@@H](O)[C@H](O)[C@H]5NC(C)=O)[C@H](O)[C@H]4NC(C)=O)[C@H](O)[C@H]3NC(C)=O)[C@H](O)[C@H]2NC(C)=O)[C@@H]1O (some centres unmarked) [CO8, octa-N-acetyl-chitooctaose] | dependent on POLLUX | 0.0191 g | 3.00 | 5.20 | promoted | promoted | – | respond equally well | – | 11.51 cm
